In US20230321122A1, “ACTIVE AGENT MODULATING THE ACTIVITY OF AN ION CHANNEL FOR USE IN HAIR GROWTH REGULATION” (CUTANEON - Skin & Hair Innovations GmbH, priority 2020, published 2023):

How the values were obtained:
[1] = tested on: human hair follicles; test: Human hair follicle organ culture, hair cycle staging; type: cell-based; conditions: for hair cycle stage of hair follicles (anagen) vs vehicle: 12.5 (unit not given), day 3 and day 6, FIGS. 8, 9
Experimental: Human anagen hair follicles were isolated from the skin of males undergoing hair transplantation with written informed consent. Microdissected hair follicles were amputated at the level of dermal-subcutaneous junction and equilibrated in Williams' E medium (WEM) (Life Technologies) supplemented with 2 mM L-glutamine (Life Technologies), 10 ng/ml hydrocortisone, 10 μg/ml insulin, and antibiotics (all from Sigma-Aldrich). After 24 hours, growing undamaged anagen hair follicles were selected for treatment with DMP Human hair follicles were cultured in presence of DMP (12.5 The culture medium was changed every two days with addition of DMP. Hair follicles were photographed and percentage of hair follicles at different stages of hair cycle were calculated at day 3 and day 6 of the treatment and compared to vehicle.
(§1) Human anagen hair follicles were isolated from the skin of males undergoing hair transplantation with written informed consent. […] After 24 hours, growing undamaged anagen hair follicles were selected for treatment with 2-Hep (12.5 The culture medium was changed every two days with addition of 2-Hep. Hair follicles were photographed and percentage of hair follicles at different stages of hair cycle were calculated at day 3 and day 6 of the treatment and compared to vehicle.
as §1, with “human hair follicles were cultured in presence of TPPO (150” for “2-Hep (12.5”, “TPPO.” for “2-Hep.”

[2] = tested on: human hair follicles; test: Quantitative PCR gene expression in compound-treated human hair follicles; type: cell-based; conditions: 6 hours, vs vehicle
Experimental: Total RNA was isolated using PICOPURE® RNA Isolation Kit (Applied BioSystems) according to the manufacturer's protocol. After isolation, 100 ng of total RNA was reverse-transcribed into cDNA using a TETRO® cDNA synthesis kit (Bioline). Quantitative-PCR was performed using the StepOne Plus real time PCR system (Applied Biosystems) using TAQMAN® fast advanced master mix and TAQMAN® probes for LEF1, IGF1, TGFB2 AND SFRP1 (Applied Biosystems). The amount of the aforementioned transcripts was normalized to the expression of reference gene (GAPDH) using the ΔΔCt method. Results were performed in triplicate for each experiment.
For gene expression analysis, human hair follicles were microdissected as above and treated with 2-Hep (12.5 uM) for 6 hours. Following the treatment, total RNA was isolated and processed for cDNA synthesis as above. Quantitate PCR was performed using TAQMAN® assay with probes for TGFB2 and AXIN2 (Applied Biosystems).
For gene expression analysis, human hair follicles were microdissected as above and treated with TPPO (150 uM) for 6 hours. Following the treatment, total RNA was isolated and processed for cDNA synthesis as above. Quantitate PCR was performed using TAQMAN® assay with probes for IGF1, FGF7 and TGFB2 (Applied Biosystems).

For `CCCCCC(C)=O` [2-Hep, 2-heptanone], the “hair cycle stage of hair follicles (anagen) vs vehicle” value [1] was “prolongs anagen”, the “expression of AXIN2” value ([2]; 12.5 uM, FIG. 10) was “up-regulated” and the “expression of TGFB2” value ([2]; 12.5 uM, FIG. 10) was “down-regulated”.

`Cc1cnc(C)cn1` [DMP, 2,5-dimethylpyrazine] was tested, and the “hair cycle stage of hair follicles (anagen) vs vehicle” value [1] was “prolongs anagen”.

With `O=P(c1ccccc1)(c1ccccc1)c1ccccc1` [TPPO, triphenylphosphine oxide] the “hair cycle stage of hair follicles (catagen) vs vehicle” value ([1]; 150 (unit not given), day 3 and day 6, FIG. 11) was “promotes catagen”, the TGFB2 transcript ([2]; 150 uM, FIG. 12) was “up-regulated” and the “expression level of FGF7” value ([2]; 150 uM, FIG. 12) was “significantly down-regulated”. For the same compound, the “expression level of IGF1” value ([2]; 150 uM, FIG. 12) was “significantly down-regulated”.
